# Test results as given in patent publication US5104895A, “Platinum(II) complexes, their preparation and use as anti-tumor agents” (Boehringer Mannheim Italia S.p.A., priority 1988, dated 1992).
# Experiments:
# M5076 ovarian carcinoma = experiment: advanced M 5076 ovarian carcinoma in female mice; type: in vivo
# Excerpt: (§1) "In vivo" experiments including: a murine leukaemia and murine L1210 leukaemia / cisplatin resistant (i.p. drug administration day 1 after i.p. injection of 10^6 tumour cells day 0); b) advanced M 5076 ovarian carcinoma in female mice (i.m. injection of 5.10^5 cell day 0, drug administration q7d×3) are based on classical models that allow a preliminary evaluation of efficacy and toxicity of the novel agent in comparison with a well-stated reference drug. The evaluated parameters are toxic death, median survival time (T/C %) and long term survivals (60 days).
# murine L1210 leukaemia = experiment: in vivo murine L1210 leukaemia
# Excerpt: as §1
# L1210 resistant line = experiment: in vivo murine L1210 leukaemia / cisplatin resistant
# Excerpt: as §1
# [1] = cited from earlier work
# tumours in patients = details: human, in vivo; cited from earlier work
# cervix epithelioma = experiment: MTT assay, cervix epithelioid carcinoma; type: cell-based, human; details: in vitro
# Excerpt: The "in vitro" testing procedure has been based on the "MTT assay on human tumor cell lines" (T. Mosmann, J Immunol. Meth., 65, 55, 1983). According to N.C.I screening program for new anticancer drugs, the evaluation of the anti-tumour activity has been performed against groups of cell lines each representing a major category of human malignancy. Human cell (for ex. cervix epithelioid carcinoma, melanoma, fibrosarcoma and vulvar leiomyosarcoma cultures have been adapted to grow in complete RPMI 1640 medium; the compounds were added to 24 hours cultures and incubated for 72 and 160 hours.
# [2] = cisplatin at 7 and 10 mg/kg, i.p. day 1
molecule,measurement,setting,value
"N.N.[Cl][Pt][Cl] [cisplatin, cis-diammino-dichloro-platinum, reference compound]",body weight change,M5076 ovarian carcinoma; equieffective dose levels,marked body weight decrease
same,long term survivals (60 days),murine L1210 leukaemia; [2],1/10
same,median survival time (T/C %),murine L1210 leukaemia; [2],162%
same,median survival time (T/C %),L1210 resistant line,115%
same,side-effects,[1]; following cisplatin use,"important gastrointestinal and renal side-effects, haematologic and neurologic complications (ototoxicity)"
same,activity against head and neck squamous cell carcinoma and further listed tumors,tumours in patients,a certain activity
same,"activity against lung tumors (non-small cell), osteogenic sarcoma, Hodgkins lymphoma, melanoma and mammary tumors",tumours in patients,"a certain, even if limited, activity"
same,antitumour activity in patients,tumours in patients,"particularly effective in the treatment of genito-urinary tumours, of neck and head tumours"
N.N.O=C([O-])C1(C(=O)[O-])CCC1.[Pt+2] [carboplatin],nephrotoxicity compared with cis-platin,"[1]; human, in vivo",less nephrotoxic than cis-platin
same,"activity against lung tumors (non-small cell), osteogenic sarcoma, Hodgkins lymphoma, melanoma and mammary tumors",tumours in patients,"a certain, even if limited, activity"
"NCCN.O=C([O-])C(CCOCCOCCO)C(=O)[O-].[Pt+2] [reference compound, cis(1,2-diaminoethane)-(8-hydroxy 3,6-dioxaoctane-1-yl-malonate) platinum (II), reference compound]",toxicity,murine L1210 leukaemia; at the higher dose level,heavily toxic
"(2R, 3R, 11R, 12R)-1,4-7,10,13,16-hexaoxacyclooctadecane-2,3,11,12-tetracarboxylate-bis- [compound B, (2R, 3R, 11R, 12R)-1,4-7,10,13,16-hexaoxacyclooctadecane-2,3,11,12-tetracarboxylate-bis-[cis(trans-d,l,-1,2)diamino-cyclohexane)-platinum(II)]]",tumour growth inhibition potency,M5076 ovarian carcinoma; drug administration q7d×3,comparable with that of cisplatin
same,body weight change,"M5076 ovarian carcinoma; mouse, in vivo",normal body weight increase
same,median survival time (T/C %),"murine L1210 leukaemia; 20 mg/kg dose level, i.p. day 1",170%
same,long term survivor values,"murine L1210 leukaemia; 20 mg/kg dose level, 60 days",2
same,median survival time (T/C %),murine L1210 leukaemia; 120 mg/kg,200%
same,toxic deaths,murine L1210 leukaemia; 120 mg/kg,2/10
same,long term survivors,"murine L1210 leukaemia; 120 mg/kg, 60 days",2/10
same,DL100,murine L1210 leukaemia; i.p.,over 200 mg/kg
same,cross resistance with cisplatin,L1210 resistant line,Lack of cross resistance with cisplatin
same,median survival time (T/C %),L1210 resistant line,over 160%
"cis[(1,1-diaminomethyl-cyclohexane)-3,3-(1,5,8,11,14,17-hexaoxacyclononadecane)cyclobutane]-1,1-dicarboxylate [compound D]",antitumour activity compared with cisplatin,cervix epithelioma,more active than cisplatin of about a log. order
same,cross resistance with cisplatin,L1210 resistant line,Lack of cross resistance with cisplatin
same,median survival time (T/C %),L1210 resistant line,over 160%
